Columns and labels:
MOR [1] = target: T1, MOR (Homo sapiens, UniProt P35372); assay: biochemical; assay type: binding; conditions: for MOR, inhibition of radioligand binding at 10 μM (class): Table 2
rat kidney TSPO = rat kidney TSPO (Rattus norvegicus, UniProt P16257); assay: Radioligand binding at TSPO; conditions: for Ki: TSPO, rat TSPO, [3H]PK11195; for TSPO, inhibition of radioligand binding at 10 μM (class): Table 2
hDAT = hDAT (Homo sapiens, UniProt Q01959); assay: Radioligand binding at DAT; conditions: 10 μM; [3H]WIN35428; negative = enhanced radioligand binding
mA3AR = target: T2, mA3AR (Mus musculus, UniProt Q61618); conditions: ref Tosh et al. 2,3,6,34,35,37; cited from earlier work
T2 sequence (Q61618 1-319): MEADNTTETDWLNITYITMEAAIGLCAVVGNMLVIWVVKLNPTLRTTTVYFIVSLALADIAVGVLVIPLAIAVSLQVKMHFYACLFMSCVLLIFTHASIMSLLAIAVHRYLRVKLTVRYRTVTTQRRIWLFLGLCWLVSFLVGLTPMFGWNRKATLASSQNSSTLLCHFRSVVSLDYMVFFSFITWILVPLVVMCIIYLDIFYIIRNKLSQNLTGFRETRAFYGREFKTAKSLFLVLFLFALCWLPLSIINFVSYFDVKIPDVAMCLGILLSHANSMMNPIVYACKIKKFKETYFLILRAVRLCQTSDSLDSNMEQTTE

5HT2C serotonin receptor = target: T3, 5HT2C serotonin receptor (Homo sapiens, UniProt P28335); assay: PDSP off-target binding, 5HT2C
T3 sequence (P28335 33-458): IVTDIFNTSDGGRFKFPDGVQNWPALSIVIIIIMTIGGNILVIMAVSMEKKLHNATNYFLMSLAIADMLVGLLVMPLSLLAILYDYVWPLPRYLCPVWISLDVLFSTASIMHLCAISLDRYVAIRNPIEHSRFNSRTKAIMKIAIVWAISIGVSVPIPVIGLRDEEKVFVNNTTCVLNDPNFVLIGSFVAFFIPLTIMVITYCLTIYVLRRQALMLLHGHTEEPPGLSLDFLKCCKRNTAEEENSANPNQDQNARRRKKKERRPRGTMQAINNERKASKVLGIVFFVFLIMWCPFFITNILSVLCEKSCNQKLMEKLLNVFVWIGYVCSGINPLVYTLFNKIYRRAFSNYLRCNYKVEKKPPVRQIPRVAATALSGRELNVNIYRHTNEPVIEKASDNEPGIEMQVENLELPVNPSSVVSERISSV

DOR [2] = target: T4, DOR (Homo sapiens, UniProt P41143); assay: Radioligand binding at DOR; conditions: for DOR, inhibition of radioligand binding at 10 μM (class): Table 2
KOR [3] = target: T5, KOR (Homo sapiens, UniProt P41145); assay: biochemical; assay type: binding; conditions: KOR, Ki, [3H]U69593; mean ± SEM, N = 2–4
5HT2B serotonin receptor = 5HT2B serotonin receptor (Homo sapiens, UniProt P41595); assay: PDSP off-target binding, 5HT2B
hA3AR = target: T6, hA3AR (Homo sapiens, UniProt P0DMS8); assay: A3AR binding
T6 sequence (P0DMS8 1-318): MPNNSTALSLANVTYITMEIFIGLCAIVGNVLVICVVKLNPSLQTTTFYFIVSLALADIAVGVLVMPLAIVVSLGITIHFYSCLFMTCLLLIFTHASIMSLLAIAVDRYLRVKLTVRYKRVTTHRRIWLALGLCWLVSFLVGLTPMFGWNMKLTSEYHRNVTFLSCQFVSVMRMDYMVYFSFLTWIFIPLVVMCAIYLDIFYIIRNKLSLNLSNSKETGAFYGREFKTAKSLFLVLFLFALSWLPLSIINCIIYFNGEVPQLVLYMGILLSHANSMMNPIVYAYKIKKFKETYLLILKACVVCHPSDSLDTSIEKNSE

DOR [4] = target: T4, DOR; assay: β-arrestin-recruitment TANGO assay at DOR; assay type: cell-based; conditions: 10 μM
mA1AR = target: T7, mA1AR (Mus musculus, UniProt Q60612); assay: mA1AR binding; conditions: read-out: mA1AR binding, % inhibition at 10 μM
T7 sequence (Q60612 1-326): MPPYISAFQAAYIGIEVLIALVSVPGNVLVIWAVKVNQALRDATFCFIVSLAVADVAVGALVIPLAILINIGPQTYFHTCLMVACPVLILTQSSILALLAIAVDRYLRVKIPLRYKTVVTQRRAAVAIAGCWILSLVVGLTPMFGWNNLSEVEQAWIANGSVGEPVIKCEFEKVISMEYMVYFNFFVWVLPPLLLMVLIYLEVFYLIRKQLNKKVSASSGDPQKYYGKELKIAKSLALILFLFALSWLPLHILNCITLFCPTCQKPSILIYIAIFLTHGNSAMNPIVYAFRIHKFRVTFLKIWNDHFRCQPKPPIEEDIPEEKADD

KOR [5] = target: T5, KOR; assay: β-arrestin-recruitment TANGO assay at KOR; assay type: cell-based; conditions: 10 μM; vs naloxone 121 = 100% inhibition; agonist 109 (3 nM)
MOR [6] = target: T1, MOR; assay: β-arrestin-recruitment TANGO assay at MOR; assay type: cell-based; conditions: 10 μM
mA2AAR = mA2AAR (Mus musculus, UniProt Q60613); assay: mA2AAR binding; conditions: read-out: mA2AAR binding, % inhibition at 10 μM
Sequence of mA2AAR (Q60613 whole entry): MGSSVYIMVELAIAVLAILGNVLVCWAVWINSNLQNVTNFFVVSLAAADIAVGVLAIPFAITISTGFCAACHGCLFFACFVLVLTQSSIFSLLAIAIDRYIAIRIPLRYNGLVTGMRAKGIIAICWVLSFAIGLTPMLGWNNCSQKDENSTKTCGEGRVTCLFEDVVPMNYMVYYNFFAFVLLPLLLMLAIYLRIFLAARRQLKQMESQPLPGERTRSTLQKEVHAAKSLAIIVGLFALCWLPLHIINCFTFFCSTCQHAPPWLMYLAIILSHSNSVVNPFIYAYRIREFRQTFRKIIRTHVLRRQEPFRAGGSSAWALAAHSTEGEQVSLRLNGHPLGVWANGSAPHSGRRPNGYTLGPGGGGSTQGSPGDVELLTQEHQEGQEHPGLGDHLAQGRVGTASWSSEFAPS

Sequence of rat kidney TSPO (P16257 whole entry): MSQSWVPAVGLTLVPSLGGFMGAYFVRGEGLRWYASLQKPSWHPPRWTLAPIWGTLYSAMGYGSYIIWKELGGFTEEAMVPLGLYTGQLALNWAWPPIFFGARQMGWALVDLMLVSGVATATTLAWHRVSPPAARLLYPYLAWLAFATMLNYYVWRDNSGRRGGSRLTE
Sequence of hDAT (Q01959 whole entry): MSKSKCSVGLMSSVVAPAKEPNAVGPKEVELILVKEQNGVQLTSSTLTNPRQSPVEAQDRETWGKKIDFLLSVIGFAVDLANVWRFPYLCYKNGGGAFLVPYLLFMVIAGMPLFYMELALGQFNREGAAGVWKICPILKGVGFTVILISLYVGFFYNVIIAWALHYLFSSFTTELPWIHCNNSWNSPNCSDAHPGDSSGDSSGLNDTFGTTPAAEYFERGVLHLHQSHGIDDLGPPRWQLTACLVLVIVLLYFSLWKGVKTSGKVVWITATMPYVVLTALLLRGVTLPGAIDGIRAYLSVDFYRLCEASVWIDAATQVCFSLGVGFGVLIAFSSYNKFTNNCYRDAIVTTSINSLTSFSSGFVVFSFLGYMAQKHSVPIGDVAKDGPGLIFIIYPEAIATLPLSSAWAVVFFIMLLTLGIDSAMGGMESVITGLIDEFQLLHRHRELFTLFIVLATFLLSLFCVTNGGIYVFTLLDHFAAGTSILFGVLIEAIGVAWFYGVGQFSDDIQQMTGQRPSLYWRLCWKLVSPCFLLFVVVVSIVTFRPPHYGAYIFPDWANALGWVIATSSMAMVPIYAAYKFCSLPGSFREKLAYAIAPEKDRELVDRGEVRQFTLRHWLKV
T1 sequence (P35372 whole entry): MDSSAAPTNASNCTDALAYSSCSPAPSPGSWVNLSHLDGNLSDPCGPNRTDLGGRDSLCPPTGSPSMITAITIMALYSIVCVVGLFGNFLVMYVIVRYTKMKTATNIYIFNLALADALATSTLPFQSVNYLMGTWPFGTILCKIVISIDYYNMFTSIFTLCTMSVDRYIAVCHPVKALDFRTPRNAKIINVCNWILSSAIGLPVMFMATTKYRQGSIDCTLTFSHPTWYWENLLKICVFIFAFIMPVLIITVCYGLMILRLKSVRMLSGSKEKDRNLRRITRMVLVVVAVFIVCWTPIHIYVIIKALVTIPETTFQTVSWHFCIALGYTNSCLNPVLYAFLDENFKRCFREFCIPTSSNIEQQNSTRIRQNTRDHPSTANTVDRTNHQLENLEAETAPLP
T4 sequence (P41143 whole entry): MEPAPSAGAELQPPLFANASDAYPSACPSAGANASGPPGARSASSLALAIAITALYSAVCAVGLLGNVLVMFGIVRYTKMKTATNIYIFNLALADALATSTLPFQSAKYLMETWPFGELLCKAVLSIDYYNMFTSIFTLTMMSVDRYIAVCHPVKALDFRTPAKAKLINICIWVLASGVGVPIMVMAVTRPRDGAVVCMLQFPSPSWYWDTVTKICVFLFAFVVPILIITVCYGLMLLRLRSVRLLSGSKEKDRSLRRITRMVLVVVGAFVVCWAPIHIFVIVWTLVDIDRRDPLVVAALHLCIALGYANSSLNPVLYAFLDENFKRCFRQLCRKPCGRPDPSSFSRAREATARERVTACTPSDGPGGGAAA
T5 sequence (P41145 whole entry): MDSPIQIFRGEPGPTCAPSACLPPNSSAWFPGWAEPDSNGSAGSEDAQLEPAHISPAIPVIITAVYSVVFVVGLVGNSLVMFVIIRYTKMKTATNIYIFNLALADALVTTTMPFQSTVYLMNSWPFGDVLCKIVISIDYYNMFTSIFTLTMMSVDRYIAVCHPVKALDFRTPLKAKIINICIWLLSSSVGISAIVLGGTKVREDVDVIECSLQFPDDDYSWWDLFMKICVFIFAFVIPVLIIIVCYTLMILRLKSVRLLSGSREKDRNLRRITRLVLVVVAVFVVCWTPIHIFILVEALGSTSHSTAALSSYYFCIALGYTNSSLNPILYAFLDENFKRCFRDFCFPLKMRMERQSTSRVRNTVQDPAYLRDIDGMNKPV
Sequence of 5HT2B serotonin receptor (P41595 whole entry): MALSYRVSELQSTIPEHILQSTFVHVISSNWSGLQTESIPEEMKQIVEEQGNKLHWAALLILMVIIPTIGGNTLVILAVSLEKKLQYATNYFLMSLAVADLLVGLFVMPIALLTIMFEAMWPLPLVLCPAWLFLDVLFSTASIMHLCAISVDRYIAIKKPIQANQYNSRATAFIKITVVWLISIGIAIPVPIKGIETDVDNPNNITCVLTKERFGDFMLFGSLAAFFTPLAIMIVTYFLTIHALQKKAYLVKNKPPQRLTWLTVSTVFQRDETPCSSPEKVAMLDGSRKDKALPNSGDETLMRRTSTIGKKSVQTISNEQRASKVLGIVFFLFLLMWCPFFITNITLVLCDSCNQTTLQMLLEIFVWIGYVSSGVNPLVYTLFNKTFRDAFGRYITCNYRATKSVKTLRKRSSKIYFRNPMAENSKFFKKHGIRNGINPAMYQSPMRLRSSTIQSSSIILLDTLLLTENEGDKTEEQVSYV

Row | Compound | MOR, inhibition of radioligand binding at 10 μM (class) (MOR [1]) | Ki (rat kidney TSPO) | DAT, inhibition, % of control at 10 μM (hDAT) | A3AR binding, % at 10 μM (m) (mA3AR) | Ki (5HT2C serotonin receptor) | DOR, inhibition of radioligand binding at 10 μM (class) (DOR [2]) | Ki (KOR [3]) | TSPO, inhibition of radioligand binding at 10 μM (class) (rat kidney TSPO) | Ki (MOR [1]) | Ki (5HT2B serotonin receptor) | selectivity at 5HT2CR compared with 5HT2BR (5HT2C serotonin receptor) | Ki (hA3AR) | Ki (DOR [2]) | DOR Antag (%) (DOR [4]; vs naloxone 121 = 100% inhibition) | DOR Ag (%) (DOR [4]; vs standard agonist = 100%) | inhibition at 10 µM (mA1AR) | KOR Antag (%) (KOR [5]) | MOR Antag (%) (MOR [6]; vs naloxone 121 = 100% inhibition, agonist 99 (300 nM)) | MOR Ag (%) (MOR [6]; vs standard agonist = 100%) | inhibition at 10 µM (mA2AAR)
1 | CNc1nc(C#Cc2ccc(Br)s2)nc2c1ncn2[C@H]1[C@H](O)[C@H](O)[C@]2(C(=O)OC)C[C@H]12 [compound 23] | ^c (30–50% inhibition of radioligand binding at 10 μM) | 8.12 ± 0.67 µM | –370% | 57 ± 1% | 2330 nM | ^d (<30% inhibition of radioligand binding at 10 μM) | 2090 ± 330 nM |  |  |  |  |  |  |  |  |  |  |  |  | 
2 | CNc1nc(C#Cc2ccc(Cl)s2)nc2c1ncn2[C@H]1[C@H](O)[C@H](O)[C@]2(C(=O)OC)C[C@H]12 [compound 22] | ^c (30–50% inhibition of radioligand binding at 10 μM) |  | –352% | 36 ± 1% |  | ^d (<30% inhibition of radioligand binding at 10 μM) | 3130 ± 300 nM | ^c (30–50% inhibition of radioligand binding at 10 μM) |  |  |  |  |  |  |  |  |  |  |  | 
3 | CCOC(=O)[C@@]12C[C@@H]1[C@@H](n1ccc3c(NC)nc(C#Cc4ccc(Cl)s4)nc31)[C@@H]1OC(C)(C)O[C@@H]12 [compound 77, Ethyl(3aR,3bS,4aS,5R,5aS)-5-(2-((5-chlorothiophen-2-yl)ethynyl)-4-(methylamino)-7H-pyrrolo[2,3-d]pyrimidin-7-yl)-2,2-dimethyltetrahydrocyclopropa[3,4]cyclopenta[1,2-d][1,3]dioxole-3b(3aH)-carboxylate] |  |  | –20% |  | 16 nM |  | 52 ± 23 nM | ^d (<30% inhibition of radioligand binding at 10 μM) | 1530 ± 560 nM | 4.18 µM | 260 fold | 1650 ± 330 nM | 1990 ± 1020 nM |  |  |  |  |  |  | 
4 | CCOC(=O)[C@@]12C[C@@H]1[C@@H](n1cnc3c(NC)nc(C#Cc4ccc(Cl)s4)nc31)[C@H](O)[C@@H]2O [compound 24] | ^d (<30% inhibition of radioligand binding at 10 μM) | 1.29 ± 0.07 µM |  | 45 ± 5% |  | ^c (30–50% inhibition of radioligand binding at 10 μM) | 396 ± 29 nM |  |  |  |  |  |  | 35.3% | 0.7% | 43% | 58.2% | –13.4% | 0.3% | 10%

Source: publication PMC6210068 (ACS Omega, 2018)
